What was measured:
293T cells [1] = test: Cell survival rate assay (CCK-8); type: cell-based; settings: LNP containing 1.5 μg Fluc-mRNA, 24 hours, CCK-8
Protocol: (§1) Cell recovery and passaging: 293T cells were recovered and cultured in culture dishes to the required cell number.
(§2) Plating: The cells in the culture dish were digested, counted, plated in a 96-well plate at 10,000 cells per well, or in a 12-well plate at 150,000 cells per well, and cultured overnight until the cells adhered to the wall.
(§3) Cell recovery and passage: The method was the same as in Example 3.
(§4) Plating: The method was the same as Example 3.
The LNP formulations containing 1.5 μg Fluc-mRNA (prepared according to Example 4, the LNP formulation carrier components are cationic lipids, neutral lipids, structured lipids and polymer-conjugated lipids at a molar ratio of 49:10:39.5:1.5, wherein the cationic lipids are the cationic lipids listed in Table 1) and the Lipofectamine 3000 formulation were added to the cell culture medium of the 96-well plate, and the culture was continued for 24 hours. Then, 10 μL of CCK-8 solution was added to each well, and the culture plate was incubated in the incubator for 1 hour, and the absorbance at 450 nm was measured by a microplate reader.

293T cells [2] = test: Fluorescence detection of Fluc-mRNA (cell transfection efficiency of LNP formulations); type: cell-based; settings: for Relative light unit (RLU): LNP containing 0.3 μg Fluc-mRNA, 24 hours; for Multiples of values that equivalent to YK-201: RLU of YK-201 / RLU of the named lipid; for Multiples of values that equivalent to YK-202: RLU of YK-202 / RLU of the named lipid; for Multiples of values that equivalent to YK-209: RLU of YK-209 / RLU of the named lipid; for Ratio relative to SM-102: RLU of the named lipid / RLU of SM-102, times that of SM-102
Protocol: as §1, §2, §3, §4
The LNP formulation containing 0.3 μg Fluc-mRNA (prepared according to Example 4, the LNP formulation carrier components were cationic lipids, neutral lipids, structured lipids and polymer-conjugated lipids at a molar ratio of 49:10:39.5:1.5, and the cationic lipids were cationic lipids listed in Table 1) was added to the cell culture medium of a 96-well plate, and cultured for 24 hours. After that, the corresponding reagents were added according to the instructions of the Gaussia Luciferase Assay Kit, and the fluorescence expression intensity of each well was detected by the IVIS fluorescence detection system. This experiment verified the transfection efficiency of the LNP formulation in the cell, and the specific detection results are shown in Tables 6-9.

[3] = Particle size and polydispersity index (PDI) of nanolipid particles, dynamic light scattering; type: physicochemical; settings: LNP formulation prepared from the named cationic lipid, 25° C
Protocol: The particle size and polydispersity index (PDI) were determined by dynamic light scattering method using a Malvern laser particle size analyzer. 10 μL of liposome solution was diluted to 1 mL with RNase-free deionized water and added to a sample pool. Each sample was measured three times. The measurement conditions were: 90° scattering angle, 25° C.

female BALB/C mice = test: Mouse in vivo imaging of Fluc-mRNA LNP formulations; parameters: average radiation intensity (mRNA expression): unit not given here; settings: 10 μg Fluc-mRNA LNP intramuscularly
Protocol: The LNP formulation containing 10 μg Fluc-mRNA (prepared according to Example 4) was injected intramuscularly into female BALB/C mice aged 4 to 6 weeks and weighing 17 to 19 g, and the mice were intraperitoneally injected with fluorescent imaging substrates at specific time points (6 h, 24 h, 48 h and 7 d) after administration. The mice moved freely for 5 minutes, and then the average radiation intensity (corresponding to the fluorescence expression intensity) of the protein expressed by the mRNA carried by the LNP in the mice was detected by IVIS Spectrum small animal in vivo imager. The test results are shown in Tables 14 to 17 and FIGS. 12 to 14.

[4] = Encapsulation rate, drug loading concentration and total RNA concentration detection (RiboGreen); type: physicochemical; settings: LNP formulation of the named lipid
Source text: Encapsulation rate is a key quality attribute of liposomes. It refers to the percentage of drug content encapsulated in the lipid bilayer to the total amount of drug added, which can reflect the degree of drug encapsulation in liposomes. The Chinese Pharmacopoeia stipulates that the encapsulation rate should usually not be less than 80%.
The drug loading capacity is the ratio of the amount of drug in the liposome to the total amount of drug and carrier in the liposome. The drug loading capacity directly affects the clinical application dose of the drug, so the larger the drug loading capacity, the more it can meet clinical needs. The drug loading concentration is proportional to the drug loading capacity, and the relative proportion of the drug loading concentration can represent the relative proportion of the drug loading capacity. The relative proportion of the total RNA concentration can represent the relative proportion of the amount of mRNA carried by the LNP formulation.
1×TE buffer, 0.1% Triton X-100 buffer, and RiboGreen reagent (1:200) and mRNA standard stock solution were prepared.
An appropriate amount of sample was taken and added to an appropriate amount of 1×TE buffer, which was diluted to a solution containing about 2.8 μg of the test sample per 1 mL. Then the sample was added to a 96-well plate, where 50 μL of the diluted test sample or mRNA standard stock solution was added to each well, and then added with 1×TE buffer and 0.1% Triton X-100 buffer. The samples were incubated at 37° C. for 10 minutes, and 100 μL of RiboGreen reagent (1:200) was added to each well of the 96-well plate. The plate was centrifuged, and read using an ELISA reader, and the data was processed.

PDI [3] | Particle size [3] | Drug loading concentration [4] | Encapsulation rate [4] | Total RNA concentration [4] | SMILES | Cell survival rate (293T cells [1]) | Relative light unit (RLU) (293T cells [2]) | Multiples of values that equivalent to YK-201 (293T cells [2]) | Multiples of values that equivalent to YK-202 (293T cells [2]) | Multiples of values that equivalent to YK-209 (293T cells [2]) | Ratio relative to SM-102 (293T cells [2]) | average radiation intensity (mRNA expression) (female BALB/C mice; 6 h) | average radiation intensity (mRNA expression) (female BALB/C mice; 24 h) | average radiation intensity (mRNA expression) (female BALB/C mice; 48 h) | average radiation intensity (mRNA expression) (female BALB/C mice; 7 d)
20.8% | 219 nm | 29.30 µg/mL | 68.0% | 43.13 µg/mL | CCCCCCCCCCCOC(=O)CCCCCN(CCCCCCCC(=O)OC(CCCCCCCC)CCCCCCCC)CCN(C)CCOC [YK-215] | 44.59% | 981165 RLU | 29.03 | 30.53 | 21.46 | 0.59 | 50564 | 6815 | 3640 | 1020
17.7% | 193 nm | 32.62 µg/mL | 75.9% | 42.98 µg/mL | CCCCCCCCCCCOC(=O)CCCCCN(CCCCCCCC(=O)OC(CCCCCCCC)CCCCCCCC)CCN(CC)CCO [YK-204, heptadecan-9-yl-8-(2-((2-hydroxyethyl)(ethylamino))ethyl)(6-oxo-6-((undecanyloxy)hexyl)amino)octanoate] | 42.57% | 363998 RLU | 78.25 | 82.30 | 57.85 | 0.22 | 35245 | 5230 | 2440 | 754
15.1% | 135 nm | 30.6 µg/mL | 60.5% | 37.84 µg/mL | CCCCCCCCCCCCC(O)CN(C)CCCCCC(=O)OCC(CCCCCC)CCCCCCCC (centres unmarked) [HHMA, reference compound] | 65.56% | 2099714 RLU | 13.56 | 14.27 | – | 1.26 | 638870 | 109650 | 29445 | 5312

— patent publication US20260007601A1, “IONIZABLE CATIONIC LIPID COMPOUND AND COMPOSITION FOR DELIVERING NUCLEIC ACID AND USE THEREOF” (BEIJING YOUCAREKECHUANG PHARMACEUTICAL TECHNOLOGY CO., LTD., priority 2023, published 2026)
